As a reminder, the EC50 is the midpoint of the concentration-response curve.

The target in the test is human activated kallikrein enzyme (plasma kallikrein) (Homo sapiens (Human), UniProt P03952). Description: Inhibition of human activated plasma kallikrein, fluorogenic peptide substrate assay, 500 pM enzyme format. The following applies: 500 pM activated kallikrein enzyme, 300 uM Pro-Phe-Arg-7-amido-4-methylcoumarin substrate, 30 min preincubation, 10 min at RT; read-out: Primary Dose Response Assay: Average EC50. The test is classed as biochemical. In a few lines: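 Buffer 20 mM Tris pH 7.5, EDTA, NaCl, PEG-400, Triton X-100; 300 uM Pro-Phe-Arg-AMC; enzyme–inhibitor preincubation 30 min RT. Format one: 500 pM kallikrein, 10 min RT reaction; format two: 5 pM kallikrein, 18 h RT reaction. Fluorescence read at 460 nm (380 nm excitation).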
Sequence of human activated kallikrein enzyme (plasma kallikrein) (P03952 391-638): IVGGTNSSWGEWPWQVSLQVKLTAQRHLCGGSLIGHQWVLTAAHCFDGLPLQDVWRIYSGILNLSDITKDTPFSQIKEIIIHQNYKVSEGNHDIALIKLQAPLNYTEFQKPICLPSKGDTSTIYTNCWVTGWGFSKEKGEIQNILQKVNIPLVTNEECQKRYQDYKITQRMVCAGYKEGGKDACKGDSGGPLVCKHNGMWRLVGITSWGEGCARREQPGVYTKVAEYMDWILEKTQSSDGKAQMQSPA
Sequence of human activated kallikrein enzyme (plasma kallikrein) (P03952 20-390 partner): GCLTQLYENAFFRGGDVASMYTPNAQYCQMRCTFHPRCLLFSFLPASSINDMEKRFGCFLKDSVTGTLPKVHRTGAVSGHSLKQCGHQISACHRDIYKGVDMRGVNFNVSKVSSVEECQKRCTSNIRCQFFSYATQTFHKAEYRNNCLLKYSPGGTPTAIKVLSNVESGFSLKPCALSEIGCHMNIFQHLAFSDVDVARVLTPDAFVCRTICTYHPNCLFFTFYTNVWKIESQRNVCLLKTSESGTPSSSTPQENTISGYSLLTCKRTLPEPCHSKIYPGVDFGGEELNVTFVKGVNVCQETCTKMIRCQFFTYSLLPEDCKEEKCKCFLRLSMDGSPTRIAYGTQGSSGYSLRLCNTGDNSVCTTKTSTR
Consider `COCCOc1cc(C2CC2)cn2cc(Cn3cc(C(=O)NCc4ncn5ccc(Cl)cc45)cn3)nc12` [Example I-103, N-((7-chloroimidazo[1,5-a]pyridin-1-yl)methyl)-1-((6-cyclopropyl-8-(2-methoxyethoxy)imidazo[1,2-a]pyridin-2-yl)methyl)-1H-pyrazole-4-carboxamide], for which the EC50 is less than 1 nM.
Regarding `O=C(NCc1ncn2ccc(Br)c(F)c12)c1nnc(Cc2cn3nc(C4CC4)ccc3n2)o1` [Example I-140, N-((7-bromo-8-fluoroimidazo[1,5-a]pyridin-1-yl)methyl)-5-((6-cyclopropylimidazo[1,2-b]pyridazin-2-yl)methyl)-1,3,4-oxadiazole-2-carboxamide], the EC50 is less than 1 nM.
Consider `CCOC(=O)c1cc(C2CC2)cn2cc(Cn3cc(C(=O)NCc4ncn5ccc(Cl)cc45)cn3)nc12` [Example I-71, ethyl 2-((4-(((7-chloroimidazo[1,5-a]pyridin-1-yl)methyl)carbamoyl)-1H-pyrazol-1-yl)methyl)-6-cyclopropylimidazo[1,2-a]pyridine-8-carboxylate], for which the EC50 was less than 1 nM.
Consider `O=C(NCc1ncn2ccc(Br)c(F)c12)c1nnn(Cc2cn3cc(C4CC4)ccc3n2)n1` [Example I-135, N-((7-bromo-8-fluoroimidazo[1,5-a]pyridin-1-yl)methyl)-2-((6-cyclopropylimidazo[1,2-a]pyridin-2-yl)methyl)-2H-tetrazole-5-carboxamide], for which the EC50 was less than 1 nM.
For `CCOC(=O)C(C)(C)Cc1cc(C2CC2)cn2cc(Cn3cc(C(=O)NCc4ncn5ccc(Cl)cc45)cn3)nc12` [Example I-162, ethyl 3-(2-((4-(((7-chloroimidazo[1,5-a]pyridin-1-yl)methyl)carbamoyl)-1H-pyrazol-1-yl)methyl)-6-cyclopropylimidazo[1,2-a]pyridin-8-yl)-2,2-dimethylpropanoate], the EC50 was less than 1 nM.
For the molecule `O=C(NCc1ncn2ccc(Cl)c(F)c12)c1cn(Cc2cn3ccccc3n2)cn1` [Example I-297, N-((7-chloro-8-fluoroimidazo[1,5-a]pyridin-1-yl)methyl)-1-(imidazo[1,2-a]pyridin-2-ylmethyl)-1H-imidazole-4-carboxamide], the EC50 was 10 to 100 nM.
Consider `COC(=O)Cn1c(Cn2cc(C(=O)NCc3ncn4ccc(Cl)c(F)c34)nn2)cc2cc(C3CC3)ccc21` [Example I-246, methyl 2-(2-((4-(((7-chloro-8-fluoroimidazo[1,5-a]pyridin-1-yl)methyl)carbamoyl)-1H-1,2,3-triazol-1-yl)methyl)-5-cyclopropyl-1H-indol-1-yl)acetate], for which the EC50 was less than 1 nM.
For `O=C(NCc1ncn2ccc(Cl)c(F)c12)c1cn(Cc2cn3cc(C4CC4)cc(N4CCOCC4)c3n2)nn1` [Example I-173, N-((7-chloro-8-fluoroimidazo[1,5-a]pyridin-1-yl)methyl)-1-((6-cyclopropyl-8-morpholinoimidazo[1,2-a]pyridin-2-yl)methyl)-1H-1,2,3-triazole-4-carboxamide], the EC50 is less than 1 nM.
With `O=C(O)Cc1cc(C2CC2)cn2cc(Cn3cc(C(=O)NCc4ncn5ccc(Cl)c(F)c45)nn3)nc12` [Example I-157b, 2-(2-((4-(((7-chloro-8-fluoroimidazo[1,5-a]pyridin-1-yl)methyl)carbamoyl)-1H-1,2,3-triazol-1-yl)methyl)-6-cyclopropylimidazo[1,2-a]pyridin-8-yl)acetic acid], the EC50 was less than 1 nM.
For `[2H]C([2H])(NC(=O)c1cnn(Cc2cn3cc(C4CC4)ccc3n2)c1)c1ncn2ccc(Cl)cc12` [Example I-90, N-((7-chloroimidazo[1,5-a]pyridin-1-yl)methyl-d2)-1-((6-cyclopropylimidazo[1,2-a]pyridin-2-yl)methyl)-1H-pyrazole-4-carboxamide], the EC50 was less than 1 nM.
With `O=C(NCc1ncn2ccc(Cl)c(F)c12)c1cnn(Cc2cn3ccccc3n2)c1` [Example I-284, N-((7-chloro-8-fluoroimidazo[1,5-a]pyridin-1-yl)methyl)-1-(imidazo[1,2-a]pyridin-2-ylmethyl)-1H-pyrazole-4-carboxamide], the EC50 was 10 to 100 nM.
Next, `O=C(NCc1ncn2ccc(Br)cc12)c1nnc(Cc2cn3cc(C4CC4)ccc3n2)o1` [Example I-52, N-((7-bromoimidazo[1,5-a]pyridin-1-yl)methyl)-5-((6-cyclopropylimidazo[1,2-a]pyridin-2-yl)methyl)-1,3,4-oxadiazole-2-carboxamide]: less than 1 nM; `CNc1cccc2nc(Cn3cc(C(=O)NCc4ncn5ccc(Cl)cc45)cn3)cn12` [Example I-77, N-((7-chloroimidazo[1,5-a]pyridin-1-yl)methyl)-1-((5-(methylamino)imidazo[1,2-a]pyridin-2-yl)methyl)-1H-pyrazole-4-carboxamide]: 10 to 100 nM.
With `O=C(NCc1ncn2ccc(Cl)cc12)c1cnn(Cc2cn3c(Br)cccc3n2)c1` [Example I-27, 1-((5-bromoimidazo[1,2-a]pyridin-2-yl)methyl)-N-((7-chloroimidazo[1,5-a]pyridin-1-yl)methyl)-1H-pyrazole-4-carboxamide], the concentration for a half-maximal effect (EC50) lay in the range of 1 to 10 nM.
The figure for `C#Cc1ccn2cnc(CNC(=O)c3cnn(Cc4cn5nc(C6CC6)ccc5n4)c3)c2c1` [Example I-98, 1-((6-cyclopropylimidazo[1,2-b]pyridazin-2-yl)methyl)-N-((7-ethynylimidazo[1,5-a]pyridin-1-yl)methyl)-1H-pyrazole-4-carboxamide] is less than 1 nM.
For `O=C(NCc1ncn2ccc(Cl)cc12)c1cn(Cc2cn3cc(C4CC4)ccc3n2)nc1C1CC1C(=O)O` (centres unmarked) [Example I-120, 2-(4-(((7-chloroimidazo[1,5-a]pyridin-1-yl)methyl)carbamoyl)-1-((6-cyclopropylimidazo[1,2-a]pyridin-2-yl)methyl)-1H-pyrazol-3-yl)cyclopropane-1-carboxylic acid], the EC50 was less than 1 nM.
Turning to `O=C(NCc1ncn2ccc(Cl)cc12)c1cnn(Cc2cn3cc(C4CC4)cc(C(=O)O)c3n2)c1` [Example I-72, 2-((4-(((7-chloroimidazo[1,5-a]pyridin-1-yl)methyl)carbamoyl)-1H-pyrazol-1-yl)methyl)-6-cyclopropylimidazo[1,2-a]pyridine-8-carboxylic acid], the EC50 was 1 to 10 nM.
Turning to `O=C(NCc1ncn2ccc(Cl)c(F)c12)c1cn(Cc2cn3cc(C4CC4)ccc3n2)cn1` [Example I-271, N-((7-chloro-8-fluoroimidazo[1,5-a]pyridin-1-yl)methyl)-1-((6-cyclopropylimidazo[1,2-a]pyridin-2-yl)methyl)-1H-imidazole-4-carboxamide], the EC50 is less than 1 nM.
In the case of `C/C=C\c1ccc2nc(Cn3cc(C(=O)NCc4ncn5ccc(Cl)cc45)cn3)cn2c1` [Example I-47, (Z)—N-((7-chloroimidazo[1,5-a]pyridin-1-yl)methyl)-1-((6-(prop-1-en-1-yl)imidazo[1,2-a]pyridin-2-yl)methyl)-1H-pyrazole-4-carboxamide], the EC50 was 1 to 10 nM.
Next, `O=C(NCc1ncn2ccc(Cl)c(F)c12)c1cnn(Cc2cn3ncccc3n2)c1` [Example I-285, N-((7-chloro-8-fluoroimidazo[1,5-a]pyridin-1-yl)methyl)-1-(imidazo[1,2-b]pyridazin-2-ylmethyl)-1H-pyrazole-4-carboxamide]: 10 to 100 nM.

Values taken from patent publication US10730874B2 (Shire Human Genetic Therapies, Inc., priority 2018, dated 2020).
